Assay results taken from article PMC12735951, “A Bioorthogonal TCO–Tetrazine-Based Pretargeted PET/NIRF Platform Enabling High-Contrast Tumor Imaging” (Pharmaceuticals, 2025).

Experiments:
HeLa xenograft = assay: In vivo NIR fluorescence imaging, HeLa xenograft-bearing nude mice
Protocol: (§1) To evaluate the tumor-targeting characteristics of DZ-TCO derivatives, DZ-1-TCO, DZ-Lys-TCO, and DZ-Lys-PEG4-TCO were administered to HeLa and U87MG xenograft-bearing nude mice (100 μL of 50 μM, n = 3 per group). In vivo fluorescence imaging was conducted at 4, 24, 48, 72, and 96 h after TCO compound injection.
(§2) Female BALB/c nude mice (4–6 weeks old; 14–20 g), obtained from Beijing Vital River Laboratory Animal Technology Co., Ltd. (Beijing, China), were subcutaneously inoculated with 5 × 10^6 HeLa or U87MG cells suspended in 100 μL PBS into the right flank. Tumor growth was monitored every 2–3 days using digital calipers, and experiments were initiated when tumor volumes reached approximately 150–300 mm^3, calculated using the formula Volume = (length × width^2)/2.
(§3) To assess the tumor-targeting capability and clearance kinetics of DZ-TCO precursors, 100 µL of each compound ([…] in PBS) was administered intravenously via the tail vein. Whole-body fluorescence imaging was performed at predetermined time points (4, 24, 48, 72, and 96 h post-injection) using the IVIS Spectrum imaging system (PerkinElmer, Shelton, CT, USA) (excitation/emission, 745/820 nm) with automatic subtraction of background fluorescence during the acquisition. Fluorescence signals were acquired under standardized exposure settings, and region-of-interest (ROI) analysis was conducted using Living Image software version 4.4 (PerkinElmer) to quantify fluorescence intensity in the tumor and major organs.

HeLa and U87MG xenograft = assay: In vivo NIR fluorescence imaging, results not split by tumor model (organs, tumor-to-background ratios, retention); design: species or system mice
Protocol: as §1, §2
as §3, with “([…])” for “(4, 24, 48, 72, and 96 h post-injection)”

U87MG xenograft = assay: In vivo NIR fluorescence imaging, U87MG xenograft-bearing nude mice
Protocol: as §1, §2, §3

[1] = Partition coefficient (log p), n-octanol/PBS; format: physicochemical
Protocol: (§4) ^68GaCl3 (5 mL, 20 mCi) and DOTA-Tz (50 μg) were mixed in a reaction vial. The pH was adjusted to 4.0–4.5 by adding 1 M sodium acetate, and the mixture was heated at 95 °C for 15 min without further purification. Radiochemical purity was confirmed by RP-HPLC. In vitro stability of ^68Ga-DOTA-Tz was assessed by incubating aliquots in 50% FBS or 50% PBS at 37 °C for 30 min, 1 h, 2 h, and 4 h. The partition coefficient (log p) was determined by mixing 1 mL of n-octanol with 1 mL of PBS containing the tracer, vortexing, and centrifuging at 3000 rpm for 5 min. Samples (0.1 mL) from both the organic and aqueous phases were withdrawn, and their radioactivity was measured using a γ-counter (PerkinElmer Wizard, Shelton, CT, USA).

[2] = In vitro stability in 50% PBS; format: physicochemical; settings: 37 °C
Protocol: as §4

HeLa tumors = assay: Pretargeting biodistribution (γ-counter) of DZ-Lys-TCO and ^68Ga-DOTA-H-Tz; format: in vivo, mice; settings: DZ-Lys-TCO 48 h pretargeting interval
Protocol: To assess the in vivo biodistribution of the pretargeting system, female BALB/c nude mice bearing HeLa tumors (n = 3) were first injected intravenously with DZ-TCO. After 48 h, 0.74 MBq of ^68Ga-DOTA-H-Tz was administered via the tail vein. At 30, 60, and 120 min post-injection, mice were euthanized, and tissues including blood, tumor, liver, kidney, spleen, heart, lung, muscle, stomach, intestines, brain, and bone were excised, weighed, and counted using a γ-counter (Wizard2, PerkinElmer, Shelton, CT, USA). Radiotracer uptake was expressed as the percentage of injected dose per gram of tissue (%ID/g). Tumor-to-organ uptake ratios were calculated accordingly.

subcutaneous tumors = assay: Pretargeted PET imaging with DZ-Lys-TCO and ^68Ga-DOTA-H-Tz at different intervals; format: in vivo, mice; settings: DZ-Lys-TCO pre-injected
Protocol: To evaluate in vivo tumor targeting and bioorthogonal reaction kinetics, female BALB/c nude mice bearing subcutaneous tumors were intravenously injected with […] of each DZ-TCO precursor in phosphate-buffered saline (PBS). At predefined intervals (24, 48, or 72 h post-injection), […] of ^68Ga-labeled tetrazine probe (^68Ga-DOTA-Me-Tz or ^68Ga-DOTA-H-Tz; 3.7 MBq in PBS) was administered via the tail vein. PET imaging was performed using the IRIS system (Inviscan, Paris, France) at 30 min, 1 h, and 2 h post-injection under 2% isoflurane anesthesia. Image reconstruction and quantitative analysis were conducted using Inveon Research Workplace and OsiriX MD software version 10.0.4. Regions of interest (ROIs) were manually defined over tumors and major organs, and radiotracer uptake was expressed as the percentage of the injected dose per gram of tissue (%ID/g).

[3] = In vitro stability in 50% fetal bovine serum (FBS); format: in vitro ADME; settings: for radiochemical purity in FBS at 4 h: 50% FBS, 37 °C; for radiochemical stability after 4 h: PBS and serum
Protocol: as §4

## CC1(C)C(=CC=C2CCCC(C=CC3=[N+](CCCCS(=O)(=O)[O-])c4ccccc4C3(C)C)=C2Cl)N(CCCCCC(=O)NCCCCC(N)C(=O)NCCCNC(=O)OC2CCC=CCCC2)c2ccccc21 (stereo not shown) [DZ-Lys-TCO]
HeLa xenograft; 4 h post-injection
  tumor fluorescence intensity: 2.19 × 10^9 p/s/cm^2/sr
HeLa xenograft; 24 h post-injection
  tumor fluorescence intensity: 7.06 × 10^9 p/s/cm^2/sr
HeLa xenograft; 48 h post-injection
  tumor fluorescence intensity: 5.43 × 10^9 p/s/cm^2/sr
HeLa and U87MG xenograft; 4 h
  tumor-to-background fluorescence ratio: 368.67 ± 151.28
HeLa and U87MG xenograft; 48 h
  fluorescence signal intensity, kidneys: 3.95 × 10^8 p/s/cm^2/sr
  fluorescence signal intensity, liver: 5.04 × 10^8 p/s/cm^2/sr
  fluorescence signal intensity, lungs: 2.02 × 10^8 p/s/cm^2/sr
  fluorescence signal intensity, spleen: 8.77 × 10^7 p/s/cm^2/sr
  tumor-to-background fluorescence ratio: 4746.67 ± 100.66
HeLa and U87MG xenograft; 96 h
  fluorescence signal intensity, liver: 4.38 × 10^8 p/s/cm^2/sr
HeLa and U87MG xenograft; 168 h
  fluorescence in normal tissues: nearly undetectable
HeLa and U87MG xenograft; post-injection
  tumor fluorescence signal remained detectable (time post-injection): up to 168 h
U87MG xenograft; 4 h post-injection
  tumor fluorescence intensity: 5.23 × 10^9 p/s/cm^2/sr
U87MG xenograft; 24 h post-injection
  tumor fluorescence intensity: 7.18 × 10^9 p/s/cm^2/sr
U87MG xenograft; 48 h post-injection
  tumor fluorescence intensity: 4.30 × 10^9 p/s/cm^2/sr

## O=C([O-])CN1CCN(CC(=O)[O-])CCN(CC(=O)NCCCCNC(=O)Cc2ccc(-c3nncnn3)cc2)CCN(CC(=O)[O-])CC1.[68Ga+3] [^68Ga-DOTA-H-Tz]
[1]
  log p: −3.57 ± 0.21
[2]
  radiochemical purity in PBS after 4 h: 98.76 ± 0.52%
HeLa tumors; 30 min
  Blood uptake: 2.96 ± 0.11 %ID/g
  Bone uptake: 0.64 ± 0.27 %ID/g
  Brain uptake: 0.37 ± 0.30 %ID/g
  Heart uptake: 1.34 ± 0.53 %ID/g
  Intestine uptake: 1.97 ± 0.38 %ID/g
  Kidney uptake: 10.71 ± 1.34 %ID/g
  Lung uptake: 2.38 ± 1.41 %ID/g
  Muscle uptake: 0.97 ± 0.21 %ID/g
  Spleen uptake: 1.03 ± 0.08 %ID/g
  Stomach uptake: 1.16 ± 0.13 %ID/g
  T/B (tumor-to-blood ratio): 1.18 ± 0.55
  T/K (tumor-to-kidney ratio): 0.32 ± 0.14
  T/L (tumor-to-liver ratio): 1.18 ± 0.28
  liver uptake: 2.95 ± 1.04 %ID/g
  tumor uptake: 3.53 ± 1.76 %ID/g
HeLa tumors; 60 min
  Blood uptake: 1.05 ± 0.29 %ID/g
  Bone uptake: 0.52 ± 0.20 %ID/g
  Brain uptake: 0.10 ± 0.03 %ID/g
  Heart uptake: 0.78 ± 0.58 %ID/g
  Intestine uptake: 0.59 ± 0.08 %ID/g
  Kidney uptake: 6.54 ± 1.95 %ID/g
  Lung uptake: 0.50 ± 0.18 %ID/g
  Muscle uptake: 0.38 ± 0.15 %ID/g
  Spleen uptake: 0.91 ± 0.70 %ID/g
  Stomach uptake: 0.83 ± 0.30 %ID/g
  T/B (tumor-to-blood ratio): 1.63 ± 0.53
  T/K (tumor-to-kidney ratio): 0.25 ± 0.05
  T/L (tumor-to-liver ratio): 1.08 ± 0.27
  T/M (tumor-to-muscle ratio): 5.11 ± 3.51
  liver uptake: 1.56 ± 0.49 %ID/g
  tumor uptake: 1.72 ± 0.87 %ID/g
HeLa tumors; 120 min
  Blood uptake: 0.64 ± 0.18 %ID/g
  Bone uptake: 0.08 ± 0.03 %ID/g
  Brain uptake: 0.03 ± 0.01 %ID/g
  Heart uptake: 0.17 ± 0.03 %ID/g
  Intestine uptake: 0.11 ± 0.08 %ID/g
  Kidney uptake: 3.28 ± 1.00 %ID/g
  Lung uptake: 0.14 ± 0.02 %ID/g
  Muscle uptake: 0.07 ± 0.02 %ID/g
  Spleen uptake: 0.24 ± 0.06 %ID/g
  Stomach uptake: 0.10 ± 0.05 %ID/g
  T/B (tumor-to-blood ratio): 1.39 ± 0.74
  T/K (tumor-to-kidney ratio): 0.26 ± 0.10
  T/L (tumor-to-liver ratio): 1.07 ± 0.05
  T/M (tumor-to-muscle ratio): 10.92 ± 0.31
  liver uptake: 0.76 ± 0.23 %ID/g
  tumor uptake: 0.82 ± 0.28 %ID/g
HeLa tumors; all time points
  Bone uptake, consistently: < 0.70 %ID/g
Subcutaneous tumors; 24 h interval
  maximum T/M ratio: 5.31 ± 0.48
Subcutaneous tumors; 24 h interval, 30 min p.i.
  liver uptake: 2.61 ± 0.53 %ID/g
  tumor uptake: 2.64 ± 0.73 %ID/g
Subcutaneous tumors; 24 h interval, 60 min p.i.
  T/L ratio: 1.01 ± 0.08
  liver uptake: 1.15 ± 0.16 %ID/g
  tumor uptake: 1.18 ± 0.25 %ID/g
Subcutaneous tumors; 24 h interval, 120 min p.i.
  liver uptake: 0.91 ± 0.16 %ID/g
  tumor uptake: 0.79 ± 0.14 %ID/g
Subcutaneous tumors; 48 h interval
  T/L ratio: 1.35 ± 0.26
  T/M ratio (highest): 8.30 ± 3.39
Subcutaneous tumors; 48 h interval, 30 min p.i.
  tumor uptake: 3.24 ± 0.95 %ID/g
Subcutaneous tumors; 48 h interval, 120 min p.i.
  tumor uptake: 0.96 ± 0.29 %ID/g
Subcutaneous tumors; 72 h interval
  maximum T/M ratio: 5.84 ± 1.49
Subcutaneous tumors; 72 h interval, 30 min p.i.
  liver uptake: 2.32 ± 0.79 %ID/g
  tumor uptake: 1.89 ± 0.57 %ID/g
Subcutaneous tumors; 72 h interval, 60 min p.i.
  T/L ratio: 0.98 ± 0.10
  liver uptake: 1.40 ± 0.43 %ID/g
  tumor uptake: 1.35 ± 0.31 %ID/g
Subcutaneous tumors; 72 h interval, 120 min p.i.
  liver uptake: 0.97 ± 0.05 %ID/g
  tumor uptake: 0.91 ± 0.31 %ID/g
[3]
  radiochemical purity in FBS at 4 h: 98.53 ± 0.58%
  radiochemical stability after 4 h: > 85%

## Cc1nnc(-c2ccc(OCCOCCOCCOCCNC(=O)CN3CCN(CC(=O)[O-])CCN(CC(=O)[O-])CCN(CC(=O)[O-])CC3)cc2)nn1.[68Ga+3] [^68Ga-DOTA-Me-Tz]
[1]
  log p: −2.87 ± 0.02
[2]
  radiochemical purity in PBS after 4 h: 94.48 ± 1.48%
[3]
  radiochemical purity in FBS at 4 h: 85.88 ± 7.55%
  radiochemical stability after 4 h: > 85%
